For test [1], the system named is BCL-2, VEGF-A, KRAS transcripts in MCF-7 cells. Briefly: Real time PCR of other oncogene transcripts. Format: cell-based, human. The following applies: MCF-7, 24 h, qPCR. As for the experimental part: (§1) To inspect the transcription inhibitory roles of peptides in c-MYC, BCL-2, VEGF-A and KRAS oncogenes having putative quadruplexes in their promoters, we performed real time polymerase chain reactions. MCF-7 cells are sub-cultured into 6-well microtiter plates at a density of 1 × 10^6 cells per well and treated with different concentrations of peptides (FK13, KR12A, KR12B and KR12C) for 24 hours. Total RNA is isolated from both untreated and treated cells using TRIzol method (Invitrogen) as per manufacturer's instructions. 2 μg of total RNA is processed for cDNA synthesis and reverse transcribed using a Super MuLV RT Kit (Biobharati Life Sciences Pvt. Ltd.). Real time PCR is performed using Maxima SYBR Green/ROX qPCR Master Mix (2×) (Thermo-Scientific) as per manufacturer's protocol. Housekeeping gene, GAPDH is used as an internal control to normalize the variability in c-MYC mRNA expression levels (Supplementary information Section 1). PCR primers are designed using Primer-BLAST, NCBI, and analyzed in OligoAnalyser 3.1-IDT (Supplementary Table S2).

The test system of test [2] is c-MYC promoter (Pu27-GQ) in MCF-7 cells. Briefly: Dual-luciferase assay, c-MYC promoter with Pu27-GQ. It counts as cell-based, human. The following applies: for c-MYC promoter activity, fold repression: MCF-7, 24 h peptide treatment, 60 μM, Renilla/firefly normalised; for c-MYC promoter activity: MCF-7, 24 h, peptide 0–60 μM. How it is done: (§2) MCF-7 cells are sub-cultured into 24-well microtiter plates at a cell density of 1 × 10^5 cells/well. Reporter constructs (c-MYC, BCL-2, KRAS and VEGF-A) (500 ng) with and/or without the G-quadruplex scaffolds triggering the expression of Renilla luciferase are co-transfected with 50 ng of pGL3-control vectors (Promega) (used as internal control), encoding firefly luciferase into MCF-7 cells using Lipofectamine® 3000 transfection reagent (Thermo-Fisher Scientific) following manufacturer's recommendations (Supplementary information Section 1). Twenty four hours post-transfection, cells are treated with peptides (FK13, KR12A, KR12B, KR12C, KR12D and KR12E) at an increasing concentration gradient.
(§3) Dual-luciferase assays are performed to examine the intracellular selectivity of peptides for c-MYC quadruplex isomers (Pu27, Myc22 and Pu19) over other oncogenic quadruplexes (BCL-2, VEGF-A and KRAS) of different topologies. The role of peptide-quadruplex complex in oncogene promoter activation is investigated in contrast to the GQ-null promoter constructs into MCF-7 cells ([67]). After 24 h of peptide treatment, cells are washed and lysed into 100 μl 1× Passive lysis buffer (PLB) for 15 min at room temperature. Renilla and firefly Luciferase activities in 25 μl lysate are quantified by Dual-Luciferase® reporter assay system (Promega) as per manufacturer's recommendations. Renilla luciferase enzyme activity is normalized to that of the firefly luciferase activity and luminescence of the peptide-treated samples are normalized to the untreated ones, which yield the fold induction values for Renilla activities by different quadruplex structures in presence and absence of synthetic peptides. Luminescence of each sample is detected in GloMax® 20/20 Single-Tube Luminometer (Promega) in triplicates and averaged from three independent experiments.

The subject of test [3] is c-MYC transcripts in MCF-7 cells. Briefly: Real time PCR of c-MYC transcripts. Particulars: MCF-7, 24 h, qPCR normalised to GAPDH. It counts as cell-based, human. As for the experimental part:
as §1
(In general: Quantitative PCR measures a nucleic acid by following its amplification.)

Test [4] concerns c-MYC promoter with Myc22 isomer in MCF-7 cells. Put plainly: Dual-luciferase assay, c-MYC promoter under control of Myc22. It counts as cell-based, human. The following applies: MCF-7, 24 h peptide treatment. As for the experimental part:
as §2, §3

Test [5] relates to BCL-2 promoter (BCL-2-GQ) in MCF-7 cells. Briefly: Dual-luciferase assay, BCL-2 promoter with BCL-2-GQ. It counts as cell-based, human. The following applies: MCF-7, 24 h, peptide 0–60 μM. How it is done: as §2, §3
Another test concerns c-MYC quadruplex Pu27. Put plainly: CD melting of free and peptide-bound Pu27. Format: binding, human. How it is done: (§4) To understand the role of peptides (FK13, KR12A, KR12B, KR12C, KR12D and KR12E) in stabilizing native and truncated isomers of c-MYC G-quadruplex, we have performed temperature-driven CD melting experiments for free and peptide-bound complexes in JASCO-J815 CD spectrometer. We have gradually titrated the peptides into 10 μM of putative quadruplexes and acquired the spectra after 5 min of peptide addition to allow complex formation and equilibration. Samples are heated from 20 to 95°C having the temperature gradient and the delay time of 2.5°C/min and 150 s respectively. Since the quadruplexes unfold at higher temperatures and revert back to their initial conformations upon renaturation, we have assumed a ‘two-state transition’ model (folded and unfolded) to analyze the melting curves and estimated the melting temperatures (Tm) by fitting the data points into sigmoidal curves (Supplementary information Section 1).

The subject of test [6] is KRAS promoter (KRAS-GQ) in MCF-7 cells. Put plainly: Dual-luciferase assay, KRAS promoter with KRAS-GQ. Particulars: MCF-7, 24 h; for KRAS promoter activity: peptide 0–60 μM. It counts as cell-based, human. As for the experimental part: as §2, §3
The subject of test [7] is c-MYC quadruplex isomer Myc22. Put plainly: CD melting of free and peptide-bound Myc22. Format: binding, human. How it is done:
as §4

Test [8] has as its system telomere (Tel26) quadruplex. Put plainly: ITC of peptides with telomeric quadruplex. Format: binding, human. Particulars: potassium phosphate buffer pH 7.0. As for the experimental part:
(§5) Thermodynamic attributes of the interaction profiles between peptides and putative quadruplex sequences are analysed by ITC using iTC200 Microcalorimeter at 25°C. Synthetic peptides (FK13, KR12A, KR12B, KR12C, KR12D and KR12E) are diluted to 20 μM in 10 mM Potassium phosphate buffer (10 mM K2HPO4 + 10 mM KH2PO4) containing 0.1 M KCl (pH 7.0). Syringe is filled with 500 μM quadruplex sequences present in the upstream promoter regions of c-MYC (Pu27, Pu19, and Myc22), BCL-2 (Pu30), VEGF-A (Pu22), KRAS (Pu32) oncogenes, and telomere (Tel26) dissolved into the same buffer. We also carried out the experiment for KR12C and Pu27 using MCF-7 nuclear extract as the solvent to mimic the cellular microenvironment and impart macromolecular crowding during binding events. Same concentration of oligonucleotides is injected into the identical buffer or in nuclear extract without peptides to normalize the heat of dilution of peptide-quadruplex association to that of the control before curve-fitting. […] The heat of reaction per injection (μcal/s) is determined by integration of the peak areas using in-built Origin 7.0 software that provides the best-fit values of enthalpy (ΔH) and entropy (ΔS) of binding, the binding stoichiometry (n), and dissociation constant (Kd) (Supplementary Tables S5(a), S5(b) and S5(c)). […]

A further test has as its system BCL-2 (Pu30) quadruplex. Put plainly: ITC of peptides with BCL-2 quadruplex. It counts as binding, human. The following applies: potassium phosphate buffer pH 7.0. As for the experimental part:
as §5

In test [9] the test system is c-MYC quadruplex isomer Pu19. Briefly: CD melting of free and peptide-bound Pu19. Particulars: 10 μM quadruplex, two-state model. Format: binding, human. As for the experimental part:
as §4

The subject of another test is KRAS (Pu32) quadruplex. Put plainly: ITC of peptides with KRAS quadruplex. It counts as binding, human. The following applies: potassium phosphate buffer pH 7.0. As for the experimental part: as §5
[10] abbreviates: 10 μM quadruplex, two-state model.

In the case of N – FKRIVQRIKDFLR – C [FK13], the “transcription of other oncogenes (BCL-2, VEGF-A, KRAS)” value in test [1] was “abrogated”. The “c-MYC promoter activity, fold repression” value in test [2] was approximately 2 fold. The “c-MYC transcription” value in test [3] is “did not downregulate c-MYC transcription”. Moreover, the “c-MYC promoter activation under control of Myc22” value in [4] is given as “attenuated”. Further, the “BCL-2 promoter activity” value in test [5] is “significantly downregulate”.
As for “N – KRIVKRIKKWLR – C [KR12B, dodecameric mutant peptide derived from FK13 / LL37]”, the “c-MYC promoter activity” value in test [2] is reported as “selectively attenuated”. For the same substance, the “effect on thermal stability of Pu27” value with c-MYC quadruplex Pu27 is on record as “did not significantly induce thermal stability”. Also, the “KRAS promoter activity” value in [6] is reported as “inverse regulation”. In test [3], the “c-MYC transcription, fold repression” value is listed as approximately 5 fold. Moreover, in [5], the “BCL-2 promoter activity” value is “inverse regulation”.
For “N – KRIVQRIKKWLR – C [KR12A, dodecameric mutant peptide derived from FK13 / LL37]”, the “transcription of other oncogenes (BCL-2, VEGF-A, KRAS)” value in test [1] was “abrogated”. In addition, the “c-MYC promoter activity, fold repression” value in test [2] is listed as approximately 2 fold. Further, the “decrease of the Tm of Pu27 upon peptide binding” value in the test with c-MYC quadruplex Pu27 (setting [10]) is approximately 30 °C. Also, the “depletion of the melting temperature of Myc22 upon peptide binding” value in test [7] is approximately 30 °C. Moreover, in test [6] (at higher concentration), the “KRAS promoter activity, fold inhibition” value is approximately 2.5 fold. Moreover, in [3], the “c-MYC transcription” value was “downregulated c-MYC transcription in a dose-dependent manner”. Moreover, in test [4], the “c-MYC promoter activation under control of Myc22” value was “attenuated”. Besides, the “BCL-2 promoter activity” value in [5] was “significantly downregulate”.
For the substance N – KRIVKLIKKWLR – C [KR12C], the “fold decreased affinity for telomeric quadruplex compared to c-MYC quadruplexes” value in [8] was approximately 4 fold. Moreover, the “c-MYC promoter activity” value in test [2] is reported as “selectively attenuated”. Further, the “rise in the Tm of Pu27 upon peptide binding” value with c-MYC quadruplex Pu27 (setting [10]) was found to be 9 °C. The “rise in the Tm of Myc22 upon peptide binding” value in [7] (setting [10]) is 6.91 °C. Further, in [6], the “KRAS promoter activity” value is “no significant impact”. Besides, in the test on BCL-2 (Pu30) quadruplex, the “binding affinity with BCL-2 quadruplex” value was “very poor or no binding affinity” and the “fold decreased affinity for BCL-2 quadruplex compared to c-MYC quadruplexes” value is on record as approximately 3 fold. Moreover, the “c-MYC transcription, fold repression” value in test [3] is approximately 5 fold. In addition, in test [9], the “rise in the Tm of Pu19 upon peptide binding” value worked out at 10.87 °C. For the same substance, the “binding affinity with KRAS quadruplex” value in the test on KRAS (Pu32) quadruplex is on record as “very poor or no binding affinity”. In addition, in test [4], the “c-MYC promoter attrition in presence of Myc22, fold” value is on record as approximately 5 fold. For the same substance, in [5], the “BCL-2 promoter activity” value is “no significant impact”.

For the origin of these results see paper PMC6212778, “Site-specific amino acid substitution in dodecameric peptides determines the stability and unfolding of c-MYC quadruplex promoting apoptosis in cancer cells” (Nucleic Acids Research, 2018).
